For one data set, the system named is CHO-K1. Kind of data set: Antagonist activity at human mineralocorticoid receptor S810L mutant expressed in CHO-K1 cells assessed as inhibition of aldosterone-induced transcriptional activity incubated for 24 hrs in presence of 0.5 nM aldosterone by Steady-Glo reagent based reporter gene assay relative to control. Also on record: scale not given: the % may be the effect or the level left. The data set is classed as cell-based. The following applies: filed as antagonist.

Data set [1] addresses T1, Mineralocorticoid receptor (Rattus norvegicus, UniProt P22199).
T1 sequence (P22199 whole entry): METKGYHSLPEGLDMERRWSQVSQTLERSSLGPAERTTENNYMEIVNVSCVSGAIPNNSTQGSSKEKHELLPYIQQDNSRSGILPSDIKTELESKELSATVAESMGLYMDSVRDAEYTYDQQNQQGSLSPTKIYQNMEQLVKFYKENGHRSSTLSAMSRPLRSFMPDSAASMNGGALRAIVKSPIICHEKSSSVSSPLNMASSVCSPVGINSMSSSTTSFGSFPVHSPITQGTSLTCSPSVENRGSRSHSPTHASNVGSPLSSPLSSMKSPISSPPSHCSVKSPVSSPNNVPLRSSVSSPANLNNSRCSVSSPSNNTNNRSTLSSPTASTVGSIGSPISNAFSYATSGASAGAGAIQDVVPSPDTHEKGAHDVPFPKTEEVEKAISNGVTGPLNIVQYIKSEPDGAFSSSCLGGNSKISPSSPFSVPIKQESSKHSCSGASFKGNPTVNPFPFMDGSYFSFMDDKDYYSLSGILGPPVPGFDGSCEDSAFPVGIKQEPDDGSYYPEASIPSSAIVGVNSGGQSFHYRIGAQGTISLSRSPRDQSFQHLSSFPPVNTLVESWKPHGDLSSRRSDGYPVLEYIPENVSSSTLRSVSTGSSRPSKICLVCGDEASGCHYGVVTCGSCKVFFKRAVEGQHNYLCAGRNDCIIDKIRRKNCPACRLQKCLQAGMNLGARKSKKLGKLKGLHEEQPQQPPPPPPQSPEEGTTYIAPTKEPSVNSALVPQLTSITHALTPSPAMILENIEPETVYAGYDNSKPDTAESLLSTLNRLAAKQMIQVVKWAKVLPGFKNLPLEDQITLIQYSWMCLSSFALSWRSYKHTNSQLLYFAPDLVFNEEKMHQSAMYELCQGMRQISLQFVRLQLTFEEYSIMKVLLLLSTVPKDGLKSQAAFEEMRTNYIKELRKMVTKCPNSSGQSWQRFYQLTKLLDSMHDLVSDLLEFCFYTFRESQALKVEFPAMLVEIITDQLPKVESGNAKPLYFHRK
Description: Displacement of [3H]-aldosterone from rat mineralocorticoid receptor incubated overnight by liquid scintillation counting analysis

Data set [2] concerns Rattus norvegicus. Kind of data set: Organ protective activity in aldosterone-induced uninephrectomized Sprague-Dawley rat model assessed as degeneration of arteries and perivascular fibrosis in heart by measuring pathological lesion score at 3 mg/kg/day by sirius red and H and E staining based histological analysis (reference value: 1.6 +/- 0.4). The data set is classed as functional.

Data set [3] deals with Rattus norvegicus. In words: Organ protective activity in aldosterone-induced uninephrectomized Sprague-Dawley rat model assessed as glomerular mesangial proliferation in kidney by measuring pathological lesion score at 3 mg/kg/day by PAS and H and E staining based histological analysis (reference value: 1.9 +/- 0.5). The data set is classed as functional.
Data set [4] is described as follows: Volume of distribution at steady state in Sprague-Dawley rat at 1 mg/kg, iv. The following applies: in vivo, read-out: Vdss. The data set is classed as ADME, organism-based.
The nature of data set [5]: Total clearence in Sprague-Dawley rat at 1 mg/kg, iv. The data set is classed as ADME, organism-based. The following applies: in vivo.
A short description of data set [6]: Half life in Sprague-Dawley rat at 1 mg/kg, iv. The data set is classed as ADME, organism-based. The conditions noted are these: in vivo.
In data set [7] the test system is Rattus norvegicus. In words: Organ protective activity in aldosterone-induced uninephrectomized Sprague-Dawley rat model assessed as interstitial cellular infiltration in kidney by measuring pathological lesion score at 3 mg/kg/day by PAS and H and E staining based histological analysis (reference value: 1.4 +/- 0.4). The data set is classed as functional.
The test system of data set [8] is Rattus norvegicus. Kind of data set: Organ protective activity in aldosterone-induced uninephrectomized Sprague-Dawley rat model assessed as urinary cast in kidney by measuring pathological lesion score at 3 mg/kg/day by PAS and H and E staining based histological analysis (reference value: 1.4 +/- 0.4). The data set is classed as functional.

pKi: −log10 of the molar value.

Take `CC1(C)Oc2cc(NS(C)(=O)=O)ccc2N(c2ccc(F)cc2)C1=O` [MT-3995]: the Activity amounted to 98.2% in the data set on CHO-K1; 0.4 in the data set on Rattus norvegicus [2]; 0.3 in the data set on Rattus norvegicus [3]; 0.3 with Rattus norvegicus [7]; 0.3 in the data set on Rattus norvegicus [8]. Besides, in data set [1], the negative-log Ki (pKi) was 7.51. The Vd in data set [4] turned out to be 1.08 L/kg. Moreover, the clearance in data set [5] is 1.91 mL/min/kg. For the same compound, the half-life in data set [6] was 8.59 h.

Usually pKi stands for the negative decadic logarithm of the Ki, by convention in mol/L. The term clearance denotes the rate of elimination divided by the concentration. A word on the half-life: it is the time needed for the level to fall by half in the phase considered.

The record behind these values is ChEMBL document CHEMBL5131538 (J Med Chem, 2022).
